{"source": "patent US7855076B2", "about": "“Use of discoidin domain receptor 1 (DDR1) and agents that affect the DDR1/collagen pathway” (The United States of America as represented by the …, priority 2002, dated 2010)", "assay_type_in_all_cases": "cell-based, human", "key": {"[1]": {"system": "monocyte-derived dendritic cells", "assay": "Flow cytometry of CD80, CD83, CD86, HLA-DR on monocyte-derived DCs", "description": "Human PBMC were isolated from leukapheresis preparations obtained by the Blood Bank, Clinical Center, National Institutes of Health (Bethesda, Md.). The leukocyte-rich preparation was overlaid on Accu-prep in 50 ml tubes and the tubes were centrifuged at 800×g for 20 min at room temperature. PBMC fractions were collected, washed once with PBS at room temperature and twice with complete medium at 4° C. and resuspended in the same medium. Monocytes were further purified by using iso-osmotic Percoll gradient. At this stage, the purity of monocytes was higher than 90%. The cells (5×10^5/ml) were allowed to adhere to the surface of 6-well plates. After a 5 hour incubation at 37° C., non-adherent cells were removed, and remaining adherent cells were subjected to the DC (Baggiolini et al., Adv. Immunol. 55:97-179, 1993). Over 95% of the adherent cells were positive for CD14 by flow cytometry analysis. Monocytes were briefly resuspended at a concentration of 1×10^6 cells/ml and cultured in complete medium containing 50 ng/ml GM-CSF and 50 ng/ml IL-4. Cells were cultured for 7 days, with cytokine added every second day, to obtain a population of immature monocyte-derived dendritic cells (DC). For maturation, immature DC (iDC) were treated with TNF-α (50 ng/ml) from day 5 to day 7. Mouse monoclonal anti-DDR1 antibody (513) (5 μg/ml) was used to specifically activate DDR1. Unrelated mouse monoclonal IgM was used as a control.\nMonocytes were plated at a density of 5×10^6 cell/ml and incubated for 5 days in the presence of 50 ng/ml GM-CSF and 50 ng/ml IL-4. Cells were cultured for 7 days, with cytokine added every second day, to obtain a population of immature monocyte-derived DCs. For maturation, iDCs were incubated with TNF-α (50 ng/ml) from day 5 to day 7. For activation of DDR1 on DCs, the cells were incubated in the presence of either agonistic anti-DDR1 IgM (513) or control IgM, and the expression of CD80, CD83, CD86, and HLA-DR was measured using a flow cytometer.\nA hundred thousand cells were resuspended in 50 μl of cold PBS containing 0.1% sodium azide, […] bovine serum albumin (BSA) and 200 μg/ml of human IgG, and then incubated for 10 minutes on ice. Subsequently, the cells were incubated with antibodies against CD80, CD83, CD86 or HLA-DR for 15 minutes on ice, and followed by washing with PBS. After washing, cells were incubated with FITC-conjugated goat anti-mouse IgG for 15 minutes on ice. At the end of the incubation, PI was added to 100 μM. Cells were washed by PBS, and subsequently analyzed on a FACscan (Becton Dickinson). Dead cells, determined by their PI-staining, were gated out. Results were processed using CellQuest software (Becton Dickinson). For the experiments of p38 MAP kinase inhibition, iDC were pre-treated with SB203580, or DMSO for 30 minutes, and then cultured with TNF-α alone, TNF-α plus 513 agonistic anti-DDR1 IgM (5 μg/ml), or TNF-α plus control IgM (5 μg/ml). These experiments were repeated with cells from three different donors."}, "THP-1 cells": {"system": "THP-1 cells", "assay": "Flow cytometry of HLA-DR, CD11c, CD14, CD40 on PMA-treated THP-1 cells", "description": "FIG. 5 is a graph showing the effects of collagen-activation of two DDR1 isoforms on the expression of CD11c, CD14, and CD40. Each cell line was plated at 5×10^6 cells/ml on either uncoated or collagen-coated plates and incubated at 37° C. for 24 hours in the presence of 10 nM PMA. Anti-1β integrin antibody (10 μg/ml) was used to block the effect of 1β integrin-collagen interaction. The percentage of CD11c, CD14, or CD40-positive cells is shown. Data are presented as the mean ±SD from three independent experiments.\nParental, mock, DDR1a-overexpressing, or DDR1b overexpressing THP-1 cells were plated at 5×10^6 cells/ml on either uncoated or collagen-coated plates and incubated at 37° C. for 24 or 48 hours in the presence of 10 nM PMA. One hundred thousand cells were suspended in 50 μl of cold PBS containing 0.1% NaN3, […] BSA and 200 μg/ml human IgG in a Falcon 2052 tube, and incubated for 10 minutes on ice. One μg of mouse monoclonal antibody against CD11c, CD14 CD40, or HLA-DR, or control mouse IgG were added to each tube and the cells were incubated for another 15 minutes on ice. The cells were washed with PBS, and then incubated with 1 μg of FITC-conjugated goat anti-mouse IgG for 15 minutes on ice. At the end of incubation, propidium iodide (PI) (100 μM) was added to each tube. The cells were washed by PBS, and subsequently analyzed by using a FACS scan (Becton Dickinson). Dead cells, determined by the incorporation of PI, were gated out. Results were processed by using the Cellquest software (Becton Dickinson).\nThe cells were then rinsed three times with RPMI 1640 containing 10% FCS, and incubated either with the p38 MAP kinase inhibitor SB203580, the MEK (MAP or ERK kinase) ½ inhibitor PD98059, or dimethylsulfoxide (DMSO) for 30 minutes, followed by an additional 12 hour incubation in the presence of 10 nM PMA plus collagen. The expression of HLA-DR was analyzed by flow cytometry."}, "MCP-1 mRNA": {"system": "MCP-1 mRNA", "assay": "MCP-1 mRNA expression in PMA-treated THP-1 cells by Northern blotting", "description": "The effect of collagen-activation on the expression of MCP-1 mRNA in PMA-treated parental, mock-transduced, DDR1a-overexpressing, and DDR1b-overexpressing THP-1 cells was measured by Northern blotting. THP-1 cells were cultured at the cell density of 5×10^6, cells/ml in the complete medium in the presence of 10 nM PMA in 6 well tissue culture plates that were either uncoated or collagen-coated. Total RNA was extracted from each culture by using TRIZOL reagent® and Northern blot analysis was performed as described (Yoshimura, J. Immunol. 150:5025, 1993). IL-1β cDNA was obtained by RT-PCR from a human monocyte cDNA library using the following primer pair: sense primer 5′-[…]-3′ (SEQ ID NO: 13) and anti-sense primer 5′-[…]-3′ (SEQ ID NO: 14). Each cDNA was labeled with [α-^32P]dCTP using Rediprime™ II random prime labeling system (Amersham Pharmacia Biotech)."}, "[2]": {"conditions": "DC maturation induced with TNF-α 50 ng/ml"}, "[3]": {"conditions": "iDC pre-treated, TNF-α-induced maturation with agonistic anti-DDR1 IgM or control IgM"}, "[4]": {"conditions": "DDR1b-overexpressing cells, collagen-coated plates, PMA, 24 hours"}}}
{"compound": "TNF-α", "values": [{"measurement": "expression of CD80", "setting": "[1]; [2]", "value": "up-regulated"}, {"measurement": "expression of CD83", "setting": "[1]; [2]", "value": "up-regulated"}, {"measurement": "expression of CD86", "setting": "[1]; [2]", "value": "up-regulated"}, {"measurement": "expression of HLA-DR", "setting": "[1]; [2]", "value": "up-regulated"}]}
{"compound": "C[S+]([O-])c1ccc(-c2nc(-c3ccncc3)c(-c3ccc(F)cc3)[nH]2)cc1", "note": "(centres unmarked) [SB203580]", "values": [{"measurement": "expression of CD80", "setting": "[1]; [3]", "value": "almost completely inhibited"}, {"measurement": "expression of CD83", "setting": "[1]; [3]", "value": "almost completely inhibited"}, {"measurement": "expression of CD86", "setting": "[1]; [3]", "value": "almost completely inhibited"}, {"measurement": "expression of HLA-DR", "setting": "[1]; [3]", "value": "almost completely inhibited"}, {"measurement": "expression of HLA-DR", "setting": "THP-1 cells; collagen-activated PMA-treated DDR1b-overexpressing cells, 24 hours", "value": "dose-dependently inhibited"}]}
{"compound": "collagen", "values": [{"measurement": "cells expressing HLA-DR", "setting": "THP-1 cells; DDR1b-overexpressing cells, collagen-activated, PMA-treated, 12 hours", "value": "Approximately 10%"}, {"measurement": "cells expressing HLA-DR", "setting": "THP-1 cells; DDR1b-overexpressing cells, collagen-coated plates, 10 nM PMA, 24 hour", "value": "approximately 25%"}, {"measurement": "cells expressing HLA-DR", "setting": "THP-1 cells; DDR1b-overexpressing cells, collagen-coated plates, 10 nM PMA, 48 hour", "value": "Approximately 70%"}, {"measurement": "cells expressing CD11c", "setting": "THP-1 cells; [4]", "value": "approximately 53%"}, {"measurement": "cells expressing CD14", "setting": "THP-1 cells; [4]", "value": "~35", "unit": "%"}, {"measurement": "cells expressing CD40", "setting": "THP-1 cells; [4]", "value": "approximately 19%"}, {"measurement": "level of MCP-1 mRNA expression", "setting": "MCP-1 mRNA; PMA-treated DDR1b-overexpressing cells on collagen-coated plates", "value": "rapidly up-regulated"}, {"measurement": "MCP-1 mRNA expression", "setting": "MCP-1 mRNA; PMA-treated parental cells", "value": "no effect"}]}
